Measured values reported in patent US20240131155A1, “T CELLS FOR USE IN THERAPY” (Erasmus University Medical Center Rotterdam, priority 2021, published 2024).
Read-outs that look alike come from different tables or passages of the source. Peptide text beside a SMILES is read from it.

Assays:
HLA-A2 = molecular target: T1, HLA-A2 (Homo sapiens, UniProt P04439, D140Y/D185E/D98H/E176V/E277Q/G131W/G231S/I119V/I121R/I166T/I218V/L300P/L318F/N151K/N90K/P208A/P217A/Q86G/Q94H/R138H/R169H/T345S); test: HLA-A2 stabilization assay using T2 cells; format: binding; conditions: for binding to HLA-A2: in words, peptides derived from immunopeptidome
T1 construct: The HLA-A2 stabilization assay was performed using T2 cells; endogenous in cells; host or cells: T2 cells (LCLxT lymphoblastoid hybrid cell line 0.1743CEM.T2)

CD8+ T cells [1] = test: peptide:MHC multimer/tetramer staining of enriched T cells (flow cytometry); format: cell-based, human; conditions: Table 4; enriched T cells after enrichment cycles
Experimental: (§1) Enrichment of epitope-specific CD8 T cells was performed according to the protocol described by Butler et al., Clin Cancer Res.;13(6):1857-1867 (2007), doi:10.1158/1078-0432, but included the following amendments. CD8+ T lymphocytes were collected from PBMCs by magnetic-activated cell sorting (MACS) according to the CD8 isolation kit (Miltenyi Biotec). CD8+ T cells with >95% purity were subsequently cultured in T cell medium supplemented with IL-2 (36 IU/mL; but no gentamycin) for 1 day, after which expansion cycles started. K562ABC cells (kindly provided by prof. Bruce Levine, University of Pennsylvania, PA) were loaded with 10 μg/ml ROPN1 and/or ROPN1B peptide and incubated for 5 h at RT in serum-free medium, after which cells were washed and fixed with 0,1% paraformaldehyde. After washing, K562ABC cells were suspended at 0.1×10^6/mL and co-cultured with T cells in a 1:20 ratio. IL-2 (36 IU/mL) and IL-15 ([…]) were added at days 1 and 3 days after start of co-culture, and after 6 days, T cells were counted, suspended at 2×10^6/mL and rested for 1 day, after which the next cycle commenced (this schedule continued up to 4 or 5 cycles). Following 4 and 5 cycles, T cells were stained with pMHC multimers (HLA*0201/MLN, Immudex, Copenhagen, Denmark). pMHC-PE were pre-incubated at RT for 10 min followed by incubation with 7AAD, anti-CD3-FITC and anti-CD8-APC for 20 min. Cells were fixed with 1% paraformaldehyde and TCR expression was measured with flow cytometry and analyzed using FlowJoX software. FIG. 4A schematically depicts the procedure to enrich epitope-specific T cells, and obtainthe corresponding TCR genes.
Following enrichment, T cells were tested for ROPN1 and/or ROPN1B epitope-specific IFNY production. To this end, T2 cells (1×10^6/mL) were loaded with peptide (20 ng/mL) for 30 min, after which T cells (1×10^5) were cultured in a 1:1 ratio with T2 cells in a round bottom 96-wells plate for 18 h. Supernatant was collected and IFN-γ production was measured with an Enzyme-linked immunosorbent assay (ELISA, BioLegend) according to the manufacturer's protocol (FIG. 9A). T2 cells loaded with an irrelevant peptide were included as a negative control. T cell IFNg production was considered epitope-specific in case levels exceeded 200 pg/ml, and levels were minimally twice as high as for irrelevant peptide (see for full listing of criteria, FIG. 8). T cells that fulfilled these criteria were stained with peptide:MHC (pMHC) tetramers to determine the frequency of epitope-specific T cells. Empty Loadable HLA Tetramers (5 μL, Tetramer shop, Kongens Lyngby, Denmark) were incubated with 0.5 μL peptide (200 μM) for 30 min on ice. Complexes of pMHC were centrifuged (3300 g, 5 min) and incubated with 0.1×10^6 T cells for 15 min at 37° C. in the dark. Next, an antibody cocktail containing CD3-FITC (1:30, BD) and CD8-APC (1:300, eBiosciences) was added and incubated for an additional 30 min at 4° C. in the dark. Finally, T cells were washed twice and fixed with 1% paraformaldehyde (PFA), after which events were acquired with FACSCelesta (BD) and analyzed using FlowJoX software.

CD8+ T cells [2] = test: Enrichment of epitope-specific CD8 T cells from healthy donors, epitope-specific IFNg production (ELISA); format: cell-based, human; conditions: positive co-cultures / co-cultures tested
Experimental: as §1
Enriched T cells were tested for ROPN1 and/or ROPN1B epitope-specific IFNY production. To this end, T2 cells (4×10^6/mL) were loaded with peptide (20 ng/mL) for 30 min. T cells (2×10^5) were cultured in a 1:1 ratio with T2 cells in a round bottom 96-wells plate, and the next day supernatant was collected and IFN-γ production was measured with an Enzyme-linked immunosorbent assay (ELISA, Invitrogen) according to manufacturer's protocol (FIG. 4B). T2 cells without peptide were included as a negative control; and staphylococcal enterotoxin B (0.1 μg, Sigma) was used as a positive control.
Enrichment of epitope-specific T cells was performed by co-culturing naïve T cells with CD11c-positive cells that were loaded with peptide. PBMCs were passed through a cell strainer (70 μm) and used for the isolation of naïve T cells and CD11c cells. To isolate CD11c-positive cells (typically dendritic cells, DC), PBMCs were stained for 10 mM at 4° C. with Fc block (10 μL/10^7 PBMCs, BD Pharmingen, Vianen, the Netherlands), after which cells were stained with CD11c-PE antibody (10 μL/10^7 PBMCs, BD Pharmingen) for 30 mM at 4° C., washed, and incubated with PE beads (10 μL/10^7 PBMCs, Miltenyi Biotech, Bergisch Gladbach, Germany) for another […] at 4° C. After washing, cells were dissolved in magnetic-activated cell sorting (MACS) buffer and passed through a MACS LS column (Miltenyi Biotec) to positively select CD11c cells. After selection, CD11c cells were irradiated with 30 Gy, and cultured overnight in a 24-wells plate (1×10^6/mL) in RPMI medium supplemented with 1% human serum (Sanquin), 1% antibiotics, […] L-glutamine, a DC maturation cocktail (a mixture of GM-CSF (10 ng/mL, ImmunoTools, Germany), IL-4 (10 ng/mL, ImmunoTools), LPS (100 ng/mL, Invitrogen, Goteborg, Sweden) and IFNY (10 ng/mL, Preprotech, London, United Kingdom)), as well as peptide (10 pg/mL). Naïve T cells were isolated with use of the Naïve T Cell isolation kit (Miltenyi Biotec) according to the manufacturer's protocol, and suspended in RPMI medium supplemented with 5% human serum (Sanquin), 1% antibiotics, […] L-glutamine and IL-7 (5 ng/mL, BD Pharmingen). The run-through of the naïve T cell selection was frozen down and used for re-stimulation of epitope-specific T cells. […]

[3] = molecular target: T2, HLA-A2 (HLA-A2:01) on T2 cells (human); test: HLA-A2 stabilization assay on T2 cells (anti-HLA-A2-PE, flow cytometry), single peptide concentration 25 ug/mL [panel E]
T2 construct: detected with anti-HLA-A2 mAb BB7.2

[4] = molecular target: T2, HLA-A2 (HLA-A2:01) on T2 cells; test: HLA-A2 stabilization assay on T2 cells (anti-HLA-A2-PE, flow cytometry), single peptide concentration [panel D]
[5] = molecular target: T2, HLA-A2 (HLA-A2:01) on T2 cells; test: HLA-A2 stabilization assay on T2 cells, peptide titration; amplitude relative to that of reference peptide YLE [panel D]
[6] = molecular target: T2, HLA-A2 (HLA-A2:01) on T2 cells; test: HLA-A2 stabilization assay on T2 cells, peptide titration; amplitude = highest data point corrected for baseline [panel E]
[7] = molecular target: T2, HLA-A2 (HLA-A2:01) on T2 cells; test: HLA-A2 stabilization assay on T2 cells, peptide titration (Example 2, repeated); column Affinity for HLA.A2.01 (M)
[8] = molecular target: T2, HLA-A2 (HLA-A2:01) on T2 cells; test: HLA-A2 stabilization assay on T2 cells, peptide titration, flow cytometry with anti-HLA-A2 BB7.2; column Affinity for HLA A2:01 (M)
[9] = Table 2 (Example 1), EC50 of peptide titration on T2 cells, read-out: Affinity for HLA A2:01
[10] = Table 4 (Examples 1 and 2), EC50 of peptide titration on T2 cells, read-out: Affinity for HLA.A2.01
[11] = Table 2 (Example 1), healthy donor T cells
[12] = Example 1, top-ranked epitopes, no legible unit, read-out: EC50 (HLA-A2 binding)

Molecule | EC50 (HLA-A2; [9]) [µM] | EC50 (HLA-A2; [10]) [µM] | Minimum stability [3] [fold change over baseline] | Minimum stability [4] [fold change over baseline] | pMHC staining % pMHC+ CD8+ in CD3+ (CD8+ T cells [1]) [%] | T cell responses observed (IFNg) against epitope (CD8+ T cells [2]; Table 4) | other results
CC[C@H](C)[C@H](NC(=O)[C@H](Cc1ccc(O)cc1)NC(=O)[C@@H](NC(=O)[C@H](Cc1ccc(O)cc1)NC(=O)[C@H](CC(C)C)NC(=O)[C@H](Cc1ccccc1)NC(=O)[C@H](CCC(N)=O)NC(=O)[C@@H](N)Cc1ccccc1)[C@@H](C)O)C(=O)N[C@@H](C)C(=O)O (H-FQFLYTYIA-OH; N-terminus and C-terminus assumed) | 3.28 | 3.43 |  |  | 0.43 | 1/4 co-cultures | EC50 (HLA-A2; [12]): 3.3 µM; T cell responses observed (IFNg) against epitope (CD8+ T cells [2]; [11]): 1/4 co-cultures
CC(C)C[C@H](NC(=O)[C@H](C)N)C(=O)N[C@@H](C)C(=O)N[C@@H](CS)C(=O)N[C@@H](CO)C(=O)N[C@@H](C)C(=O)N[C@@H](CC(C)C)C(=O)NCC(=O)N[C@H](C(=O)O)C(C)C (H-ALACSALGV-OH; N-terminus and C-terminus assumed) | 3.16 | 2.84 |  |  |  | 0/4 co-cultures | 
CC[C@H](C)[C@H](NC(=O)[C@H](CCCCN)NC(=O)[C@H](CC(C)C)NC(=O)[C@@H](NC(=O)[C@@H](N)CCCCN)[C@@H](C)O)C(=O)N[C@H](C(=O)N[C@@H](CS)C(=O)N[C@@H](CCC(=O)O)C(=O)N[C@H](C(=O)O)C(C)C)C(C)C (H-KTLKIVCEV-OH; N-terminus and C-terminus assumed) | 4.35 | 4.4 |  |  | 0.28 | 2/4 co-cultures | EC50 (HLA-A2; [12]): 4.4 µM; T cell responses observed (IFNg) against epitope (CD8+ T cells [2]; [11]): 2/4 co-cultures
CC[C@H](C)[C@H](NC(=O)[C@@H](NC(=O)[C@@H](N)CC(C)C)[C@@H](C)CC)C(=O)N[C@@H](CCCNC(=N)N)C(=O)N[C@@H](C)C(=O)N[C@@H](CCC(=O)O)C(=O)N[C@@H](CCC(=O)O)C(=O)N[C@@H](CC(C)C)C(=O)N[C@@H](C)C(=O)N[C@@H](CCC(N)=O)C(=O)N[C@@H](CCSC)C(=O)O (H-LIIRAEELAQM-OH; N-terminus and C-terminus assumed) | 6.99 | 6.99 |  |  | 0.60 | 1/7 co-cultures | binding to HLA-A2 (HLA-A2): did bind to HLA-A2 with high affinity
CSCC[C@H](NC(=O)[C@@H](N)CCCCN)C(=O)N[C@@H](CC(C)C)C(=O)N[C@@H](CCCCN)C(=O)N[C@@H](CCC(=O)O)C(=O)N[C@@H](Cc1ccccc1)C(=O)N[C@@H](C)C(=O)N[C@@H](CCCCN)C(=O)N[C@@H](C)C(=O)O (H-KMLKEFAKA-OH; N-terminus and C-terminus assumed) | 91.2 | 38.2 |  |  |  | 0/2 co-cultures | 
AELTPELLKI (Epitope 16) [eluted 10-mer, mapped in silico to HLA-B40:01] |  |  |  |  |  |  | binding to HLA-A2 (HLA-A2): did not bind to HLA-A2
MLNYIEQEV (Synthetic peptide (ThinkPeptides/ProImmune)) [Epitope 1 (MLN) peptide MLNYIEQEV of ROPN1B] |  |  | 1.13 | 1.4 |  |  | Amplitude [5]: 0.935 relative to YLE; Amplitude [6]: 3450 geometric mean normalized to baseline; EC50 [7]: 4.82 µM; EC50 [8]: 6.56 µM

Further lines, with some results ahead:

EC50 (HLA-A2; [9]) [µM] | EC50 (HLA-A2; [10]) [µM] | Minimum stability [3] [fold change over baseline] | Minimum stability [4] [fold change over baseline] | Molecule | pMHC staining % pMHC+ CD8+ in CD3+ (CD8+ T cells [1]) [%] | T cell responses observed (IFNg) against epitope (CD8+ T cells [2]; Table 4) | other results
5.05 | 4.5 |  |  | CC(C)C[C@H](NC(=O)[C@H](C)NC(=O)[C@H](CO)NC(=O)[C@H](CS)NC(=O)[C@H](C)NC(=O)[C@H](CC(C)C)NC(=O)[C@H](C)NC(=O)[C@H](CC(C)C)NC(=O)[C@@H](N)Cc1ccccc1)C(=O)O [FLALACSAL] (H-FLALACSAL-OH; N-terminus and C-terminus assumed) | 0.077 | 2/5 co-cultures | EC50 (HLA-A2; Example 1, top-ranked epitopes, read-out: EC50 (HLA-A2 binding)): 5.1 µM; T cell responses observed (IFNg) against epitope (CD8+ T cells [2]; [11]): 2/5 co-cultures
 |  | 1.09 | 1.09 | HVSRMLNYI (ROPN1B, predicted) |  |  | 
 |  | 1.06 | 1.06 | GLPRIPFST (ROPN1B, predicted) |  |  | 
 |  | 1.27 | 1.38 | LIIRAEELAQM (11-mer found by immunopeptidomics; tested as synthetic peptide) [Epitope 5 peptide LIIRAEELAQM of ROPN1 and ROPN1B] |  |  | Amplitude [5]: 0.918 relative to YLE; Amplitude [6]: 3170 geometric mean normalized to baseline; EC50 [7]: 6.99 µM; EC50 [8]: 6.99 µM
 |  | 1.62 | 1.41 | FLALACSAL (Synthetic peptide) [Epitope 2 peptide FLALACSAL of ROPN1 and ROPN1B] |  |  | Amplitude [5]: 0.95 relative to YLE; Amplitude [6]: 3800 geometric mean normalized to baseline; EC50 [7]: 4.5 µM; EC50 [8]: 5.05 µM
